Experimental data reported in patent publication US7064120B2, “Tricyclic pyridyl carboxamides and derivatives thereof tocolytic oxytocin receptor antagonists” (Wyeth, priority 2001, dated 2006).

Target: T1, human oxytocin receptor (Homo sapiens, UniProt P30559)
T1 construct: host or cells: CHO cells, stably transfected (pcDNA3.1 vector)
T1 sequence (P30559 1-389): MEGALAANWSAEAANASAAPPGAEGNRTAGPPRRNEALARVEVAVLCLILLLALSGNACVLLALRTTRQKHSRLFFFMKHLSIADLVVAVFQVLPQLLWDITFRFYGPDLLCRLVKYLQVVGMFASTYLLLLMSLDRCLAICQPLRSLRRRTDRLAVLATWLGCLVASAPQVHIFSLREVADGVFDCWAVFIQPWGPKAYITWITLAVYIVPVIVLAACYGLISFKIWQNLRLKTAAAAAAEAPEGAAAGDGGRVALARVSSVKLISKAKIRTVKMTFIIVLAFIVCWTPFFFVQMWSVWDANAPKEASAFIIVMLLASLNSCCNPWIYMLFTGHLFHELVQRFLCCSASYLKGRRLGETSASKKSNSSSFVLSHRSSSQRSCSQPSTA
Test: Oxytocin binding in CHO cell membranes expressing human oxytocin receptors ([3H]oxytocin radioligand binding)
Conditions: 100 nM; for inhibition at 0.1 µM: read-out: OT % inhibition @ 100 nM
Method: Oxytocin Binding in Chinese Hamster Ovary Cell Membranes Expressing Human Oxytocin Receptors
Cell Culture medium (e.g. 30 mL for 1:30 split) is immediately added and mixed well to inactivate trypsin. 1 mL of detached cells is added to new culture flasks containing fresh Cell Culture medium (e.g. into 25 mL per T-150 flask), and mixed gently. The cells are incubated at 37° C. in 5% CO2. The medium is changed at 3 to 4 days interval (or as appropriate). […] All steps are done under sterile conditions.
The cells are washed twice gently with Hank's Balanced Salt solution (e.g., use 10 mL per T-150 flask). […] The contents are transferred to centrifuge tubes (50 mL size) kept in ice bath. All subsequent steps are done at 4° C. The tubes are centrifuged at 300×g for 15 min (1380 rpm on SORVAL, Model RT6000D, using rotor for 50 mL tubes). The supernatant is discarded and the cells suspended in homogenizing buffer (10 mM Tris-HCl containing 0.25 M sucrose and 1 mM EDTA, pH 7.4) ensuring that the volume of the buffer is about ten times the volume of the cell pellet. The cells are pooled into a centrifuge tube (50 mL) and homogenized with a Polytron at setting 6 for 10 sec. The homogenate is transferred into a Potter-Elvjehm homogenizer and homogenized with 3 strokes. The homogenate is centrifuged at 1500×g for 10 min at 4° C. (3100 rpm using SORVAL, model RT6000D, using a rotor for 50 mL tubes). The pellet is discarded. The supernatant is centrifuged at 100,000×g for 60 min. at 4° C. (Beckman L8-80M ultracentrifuge; spin at 37,500 rpm with rotor type 70 Ti for 50 mL tubes; 38,000 rpm with rotor type 8OTi for 15 mL tubes; or 35,800 rpm with rotor type 45Ti). The supernantant is discarded and the pellet suspended in 3 to 4 mL of Tris buffer (50 mM TRIS-HCl, pH 7.4). The protein content is estimated by the Bradford or Lowry method. The volume of the membrane suspension is adjusted with the membrane buffer (50 mM Tris-HCl containing 0.1% BSA and 0.1 mM PMSF) to give 3.0 mg/mL (or as appropriate) of protein. The membranes are aliquoted and stored at −70° C.
In wells of a 96-well format microtiter plate, is added 90, 110 or 130 μL (to make up a final volume of 200 μL) of assay buffer containing 50 mM of Tris-HCl (pH 7.4), […], 1 mg % aprotinin, 1 mg % leupeptin, 2 mg % 1,10-phenanthroline, 10 mg % trypsin inhibitor, and 0.1 mM PMSF. The inhibitors are added on the day of the experiment. The components are mixed at room temperature, and then kept in ice bath following adjustment of the pH to 7.4. […] For oxytocin and other peptide ligands, 20 μL of 50% DMSO is added and the assay buffer volume is adjusted accordingly. To each well is added 50 μL of frozen membrane suspension thawed immediately prior to use and diluted in assay buffer to the required concentration (equivalent to 25 to 50 μg of protein/well as needed). 20 μL of 8 nM [^3H]oxytocin in the assay buffer, prepared just before use is added and incubated at room temperature for 60 min. shaking the plate on a mechanical shaker for the first 15 min. The incubation is stopped by rapid filtration of the plate contents followed by washing with ice-cold buffer (50 mM Tris-HCl, pH 7.4) using a cell harvester (Tomtek and Printed filtermat-B filter paper). The filter paper is thoroughly dried (7–12 min. in a microwave oven) and impregnated with MeltiLex B/H melt-on scintillation wax sheets and the radioactivity counted in a betaplate scintillation counter.
Binding data is either reported as percent inhibition at a certain concentration or if an IC50 was calculated, as a nanomolar concentration.

inhibition at 0.1 µM | SMILES | OT % inhibition @ 100 nM
93% | Cc1cc(C(=O)N2Cc3ccc(C(=O)N4CCCCC4c4cccnc4)n3Cc3ccccc32)ccc1-c1ccccc1C(F)(F)F (stereo not shown) [Example 142, (10-{[2-Methyl-2′-trifluoromethyl-[1,1′-biphenyl]-4-yl]carbonyl}-10,11-dihydro-5H-pyrrolo[2,1-c][1,4]benzodiazepin-3-yl)[2-(3-pyridinyl)-1-piperidinyl]methanone] | 
24% | O=C(c1ccc2n1Cc1ccccc1N(C(=O)c1ccc(-c3cccc4ccccc34)cc1Cl)C2)N1CCN(c2ccncc2)CC1 [Example 124, {10-[2-Chloro-4-(naphthalen-1-yl)benzoyl]-10,11-dihydro-5H-pyrrolo[2,1-c][1,4]benzodiazepin-3-yl}[4-(4-pyridinyl)-1-piperazinyl]methanone] | 
95% | Cc1cc(C(=O)N2Cc3ccc(C(=O)N(C)CCc4ccncc4)n3Cc3ccccc32)ccc1-c1ccccc1C(F)(F)F [Example 137, N-Methyl-10-{[2-methyl-2′-trifluoromethyl-[1,1′-biphenyl]-4-yl]carbonyl}-N-[2-(4-pyridinyl)ethyl]-10,11-dihydro-5H-pyrrolo[2,1-c][1,4]benzodiazepine-3-carboxamide] | 
47% | COc1ccccc1-c1ccc(C(=O)N2Cc3ccc(C(=O)NCc4ccccn4)n3Cc3ccccc32)cc1OC [Example 32, 10-[(2,2′-Dimethoxy-[1,1′-biphenyl]-4-yl)carbonyl]-N-(2-pyridinylmethyl)-10,11-dihydro-5H-pyrrolo[2,1-c][1,4]benzodiazepine-3-carboxamide] | 
22% | Cc1ccccc1-c1ccc(C(=O)N2Cc3ccc(C(=O)NCc4ccccn4)n3Cc3ccccc32)cc1 [Example 27, 10-[(2′-Methyl-[1,1′-biphenyl]-4-yl)carbonyl]-N-(2-pyridinylmethyl)-10,11-dihydro-5H-pyrrolo[2,1-c][1,4]benzodiazepine-3-carboxamide] | 
31% | COc1cccc(-c2ccc(C(=O)N3Cc4ccc(C(=O)NCCc5ccccn5)n4Cc4ccccc43)cc2C)c1 [Example 51, 10-[(3′-Methoxy-2-methyl-[1,1′-biphenyl]-4-yl)carbonyl]-N-[2-(2-pyridinyl)ethyl]-10,11-dihydro-5H-pyrrolo[2,1-c][1,4]benzodiazepine-3-carboxamide] | 
83% | COc1cccc(-c2cc(OC)c(C(=O)N3Cc4ccc(C(=O)N(C)Cc5cccnc5)n4Cc4ccccc43)cc2Cl)c1 [Example 108, 10-[(6-Chloro-3,3′-dimethoxy-[1,1′-biphenyl]-4-yl)carbonyl]-N-methyl-N-(3-pyridinylmethyl)-10,11-dihydro-5H-pyrrolo[2,1-c][1,4]benzodiazepine-3-carboxamide] | 
102% | Cc1ccccc1-c1ccc(C(=O)N2Cc3ccc(C(=O)N(C)CCc4ccncc4)n3Cc3ccccc32)cc1C [Example 127, 10-[(2,2′-Dimethyl-[1,1′-biphenyl]-4-yl)carbonyl]-N-methyl-N-[2-(4-pyridinyl)ethyl]-10,11-dihydro-5H-pyrrolo[2,1-c][1,4]benzodiazepine-3-carboxamide] | 
60% | Cc1ccccc1-c1ccc(C(=O)N2Cc3ccc(C(=O)NCc4cccnc4)n3Cc3ccccc32)cc1C [Example 37, 10-[(2,2′-Dimethyl-[1,1′-biphenyl]-4-yl)carbonyl]-N-(3-pyridinylmethyl)-10,11-dihydro-5H-pyrrolo[2,1-c][1,4]benzodiazepine-3-carboxamide] | 
44% | CN(CCc1ccncc1)C(=O)c1ccc2n1Cc1ccccc1N(C(=O)c1ccc(-c3cccc4ccccc34)cc1Cl)C2 [Example 136, 10-[2-Chloro-4-(naphthalen-1-yl)benzoyl]-N-methyl-N-[2-(4-pyridinyl)ethyl]-10,11-dihydro-5H-pyrrolo[2,1-c][1,4]benzodiazepine-3-carboxamide] | 
36% | CN(Cc1cccnc1)C(=O)c1ccc2n1Cc1ccccc1N(C(=O)c1ccc(-c3cccc4ccccc34)cc1Cl)C2 [Example 111, 10-[2-Chloro-4-(naphthalen-1-yl)benzoyl]-N-methyl-N-(3-pyridinylmethyl)-10,11-dihydro-5H-pyrrolo[2,1-c][1,4]benzodiazepine-3-carboxamide] | 
50% | COc1cc(C(=O)N2Cc3ccc(C(=O)NCc4ccccn4)n3Cc3ccccc32)ccc1-c1ccccc1C [Example 28, 10-[(2-Methoxy-2′-methyl-[1,1′-biphenyl]-4-yl)carbonyl]-N-(2-pyridinylmethyl)-10,11-dihydro-5H-pyrrolo[2,1-c][1,4]benzodiazepine-3-carboxamide] | 
67% | Cc1ccccc1-c1ccc(C(=O)N2Cc3ccc(C(=O)NCCc4ccccn4)n3Cc3ccccc32)cc1C [Example 50, 10-[(2,2′-Dimethyl-[1,1′-biphenyl]-4-yl)carbonyl]-N-[2-(2-pyridinyl)ethyl]-10,11-dihydro-5H-pyrrolo[2,1-c][1,4]benzodiazepine-3-carboxamide] | 
1% | O=C(NCc1cccnc1)c1ccc2n1Cc1ccccc1N(C(=O)c1ccc(-c3cccc4ccccc34)cc1Cl)C2 [Example 47, 10-[2-Chloro-4-(naphthalen-1-yl)benzoyl]-N-(3-pyridinylmethyl)-10,11-dihydro-5H-pyrrolo[2,1-c][1,4]benzodiazepine-3-carboxamide] | 
15% | Cc1cc(C(=O)N2Cc3ccc(C(=O)NCc4cccnc4)n3Cc3ccccc32)ccc1-c1ccccc1C(F)(F)F [Example 48, 10-{[2-Methyl-2′-trifluoromethyl-[1,1′-biphenyl]-4-yl]carbonyl}-N-(3-pyridinylmethyl)-10,11-dihydro-5H-pyrrolo[2,1-c][1,4]benzodiazepine-3-carboxamide] | 
 | COc1cc(C(=O)N2Cc3ccc(C(=O)N4CCN(c5ccncc5)CC4)n3Cc3ccccc32)ccc1-c1ccccc1C [Example 118] | 83%
 | COc1cccc(-c2ccc(C(=O)N3Cc4ccc(C(=O)NCc5ccncc5)n4Cc4ccccc43)cc2OC)c1 [Example 98] | 39%
51% | COc1ccccc1-c1ccc(C(=O)N2Cc3ccc(C(=O)NCCc4ccccn4)n3Cc3ccccc32)cc1 [Example 52, 10-[(2′-Methoxy-[1,1′-biphenyl]-4-yl)carbonyl]-N-[2-(2-pyridinyl)ethyl]-10,11-dihydro-5H-pyrrolo[2,1-c][1,4]benzodiazepine-3-carboxamide] | 
22% | COc1cc(C(=O)N2Cc3ccc(C(=O)N4CCN(c5ccccn5)CC4)n3Cc3ccccc32)ccc1-n1c(C)ccc1C [Example 145, {10-[4-(2,5-Dimethyl-1H-pyrrol-1-yl)-3-methoxybenzoyl]-10,11-dihydro-5H-pyrrolo[2,1-c][1,4]benzodiazepin-3-yl}[4-(pyridin-2-yl)-1-piperazinyl]methanone] | 
